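Compound exposure: 48 hours, 5 concentrations, 96-well plates. GI50: concentration for 50% inhibition of growth. TGI denotes the concentration required for complete inhibition of growth.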
How the values were obtained:
Test in all cases: NCI-60 cell line screen, 48 h
NCI-H23 lung = system: NCI-H23 lung
HT29 colon = system: HT29 colon
HS 578T breast = system: HS 578T breast
RXF 393 renal = system: RXF 393 renal
HOP-92 NSCLC = system: HOP-92 NSCLC
LOX IMVI melanoma = system: LOX IMVI melanoma
SK-MEL-2 melanoma = system: SK-MEL-2 melanoma
T-47D breast = system: T-47D breast
NCI-H460 lung = system: NCI-H460 lung
SF-539 CNS = system: SF-539 CNS
MDA-MB-435 = system: MDA-MB-435
MCF7 breast = system: MCF7 breast
786-0 renal = system: 786-0 renal
OVCAR-5 ovarian = system: OVCAR-5 ovarian
KM12 colon = system: KM12 colon
SNB-75 CNS = system: SNB-75 CNS
UACC-257 melanoma = system: UACC-257 melanoma
RPMI-8226 leukemia = system: RPMI-8226 leukemia
A549 NSCLC = system: A549 NSCLC
IGROV1 ovarian = system: IGROV1 ovarian
UACC-62 melanoma = system: UACC-62 melanoma
U251 CNS = system: U251 CNS
BT-549 breast = system: BT-549 breast
SNB-19 CNS = system: SNB-19 CNS
HCT-15 colon = system: HCT-15 colon
SK-MEL-5 melanoma = system: SK-MEL-5 melanoma
SF-268 CNS = system: SF-268 CNS
DU-145 prostate = system: DU-145 prostate
SF-295 CNS = system: SF-295 CNS
M14 melanoma = system: M14 melanoma
K-562 leukemia = system: K-562 leukemia
NCI/ADR-RES ovarian = system: NCI/ADR-RES ovarian
CCRF-CEM leukemia = system: CCRF-CEM leukemia
HOP-62 NSCLC = system: HOP-62 NSCLC
PC-3 prostate = system: PC-3 prostate
COLO 205 colon = system: COLO 205 colon
SW-620 colon = system: SW-620 colon
HCT-116 colon = system: HCT-116 colon
HL-60(TB) leukemia = system: HL-60(TB) leukemia
NCI-H522 lung = system: NCI-H522 lung
SR leukemia = system: SR leukemia
ACHN renal = system: ACHN renal
HCC-2998 colon = system: HCC-2998 colon
MOLT-4 leukemia = system: MOLT-4 leukemia
OVCAR-8 ovarian = system: OVCAR-8 ovarian
SK-MEL-28 melanoma = system: SK-MEL-28 melanoma
OVCAR-3 ovarian = system: OVCAR-3 ovarian
MDA-MB-231 breast = system: MDA-MB-231 breast
EKVX NSCLC = system: EKVX NSCLC
UO-31 renal = system: UO-31 renal
MALME-3M melanoma = system: MALME-3M melanoma
SK-OV-3 ovarian = system: SK-OV-3 ovarian
CAKI-1 renal = system: CAKI-1 renal
A498 renal = system: A498 renal
OVCAR-4 ovarian = system: OVCAR-4 ovarian
NCI-H226 lung = system: NCI-H226 lung
SN12C renal = system: SN12C renal
TK-10 renal = system: TK-10 renal

CC(=O)OCC1OC(n2c(-c3cccs3)c3c(c(C#N)c2=S)-c2ccccc2CC3)C(OC(C)=O)C(OC(C)=O)C1OC(C)=O (configuration not stated) gave a TGI (NCI-H23 lung) of over 56.6 µM, a TGI (HT29 colon) of 27.2 µM and a TGI (HS 578T breast) of 70.3 µM. It also gave a TGI (RXF 393 renal) of 29.3 µM, a TGI (HOP-92 NSCLC) of 29.9 µM and a TGI (LOX IMVI melanoma) of 22.5 µM. It also gave a TGI (SK-MEL-2 melanoma) of 31.5 µM, a TGI (T-47D breast) of 42.8 µM and a TGI (NCI-H460 lung) of over 45.8 µM. The TGI (SF-539 CNS) was over 49.3 µM, the TGI (MDA-MB-435) was 9.09 µM and the TGI (MCF7 breast) was 49.2 µM. The TGI (786-0 renal) was 58.5 µM, the TGI (OVCAR-5 ovarian) was over 100 µM and the TGI (KM12 colon) was over 50.2 µM. The TGI (SNB-75 CNS) was 26.7 µM, the TGI (UACC-257 melanoma) was over 55.4 µM and the TGI (RPMI-8226 leukemia) was 17 µM. The TGI (A549 NSCLC) was over 87.1 µM, the TGI (IGROV1 ovarian) was over 75.1 µM and the TGI (UACC-62 melanoma) was 43.1 µM. It also gave a TGI (U251 CNS) of over 53.8 µM, a TGI (BT-549 breast) of over 55.6 µM and a TGI (SNB-19 CNS) of over 100 µM. The TGI (HCT-15 colon) was over 56.8 µM, the TGI (SK-MEL-5 melanoma) was 23 µM and the TGI (SF-268 CNS) was over 64.4 µM. The TGI (DU-145 prostate) was over 100 µM, the TGI (SF-295 CNS) was over 55.8 µM and the TGI (M14 melanoma) was over 50.8 µM. For the same compound, the TGI (K-562 leukemia) was over 100 µM, the TGI (NCI/ADR-RES ovarian) was over 70.8 µM and the TGI (CCRF-CEM leukemia) was over 83.6 µM. For the same compound, the TGI (HOP-62 NSCLC) was over 65.4 µM, the TGI (PC-3 prostate) was over 65.3 µM and the TGI (COLO 205 colon) was 32.9 µM. For the same compound, the TGI (SW-620 colon) was over 63.4 µM, the TGI (HCT-116 colon) was over 50.4 µM and the TGI (HL-60(TB) leukemia) was over 28.1 µM. The TGI (NCI-H522 lung) was 34 µM, the TGI (SR leukemia) was over 29.8 µM and the TGI (ACHN renal) was over 64 µM. For the same compound, the TGI (HCC-2998 colon) was 33.5 µM, the TGI (MOLT-4 leukemia) was over 37.7 µM and the TGI (OVCAR-8 ovarian) was over 46.6 µM. The TGI (SK-MEL-28 melanoma) was over 59.2 µM, the TGI (OVCAR-3 ovarian) was 43.1 µM and the TGI (MDA-MB-231 breast) was 87.9 µM. It also gave a TGI (EKVX NSCLC) of 70.9 µM, a TGI (UO-31 renal) of 20.6 µM and a TGI (MALME-3M melanoma) of over 51.8 µM. The TGI (SK-OV-3 ovarian) was over 100 µM, the TGI (CAKI-1 renal) was 64.7 µM and the TGI (A498 renal) was 40.9 µM. The TGI (OVCAR-4 ovarian) was over 95.7 µM, the TGI (NCI-H226 lung) was over 56.7 µM and the TGI (SN12C renal) was over 100 µM. It also gave a TGI (TK-10 renal) of over 30.2 µM.

For COc1ccc2c(c1)C(=O)c1c-2n(CCCNCCO)c(=O)c2ccccc12, the GI50 (NCI-H23 lung) was 0.12 µM, the TGI (NCI-H23 lung) was 0.563 µM and the GI50 (HT29 colon) was 0.0764 µM. It also gave a TGI (HT29 colon) of 1.76 µM, a GI50 (HS 578T breast) of 0.262 µM and a TGI (HS 578T breast) of 2.24 µM. The GI50 (RXF 393 renal) was 0.963 µM, the TGI (RXF 393 renal) was 3.95 µM and the GI50 (HOP-92 NSCLC) was 0.087 µM. For the same compound, the TGI (HOP-92 NSCLC) was 0.531 µM, the GI50 (LOX IMVI melanoma) was 0.0473 µM and the TGI (LOX IMVI melanoma) was 0.224 µM. The GI50 (SK-MEL-2 melanoma) was 0.734 µM, the TGI (SK-MEL-2 melanoma) was 2.57 µM and the GI50 (T-47D breast) was 0.056 µM. For the same compound, the TGI (T-47D breast) was 1.62 µM, the TGI (NCI-H460 lung) was 0.137 µM and the GI50 (SF-539 CNS) was 0.0764 µM. It also gave a TGI (SF-539 CNS) of 0.408 µM, a GI50 (MDA-MB-435) of 0.322 µM and a TGI (MDA-MB-435) of 1.62 µM. It also gave a GI50 (MCF7 breast) of under 0.0115 µM, a TGI (MCF7 breast) of 0.434 µM and a GI50 (786-0 renal) of 0.0678 µM. For the same compound, the TGI (786-0 renal) was 0.568 µM, the GI50 (OVCAR-5 ovarian) was 0.346 µM and the TGI (OVCAR-5 ovarian) was 1.11 µM. It also gave a GI50 (KM12 colon) of 0.2 µM, a TGI (KM12 colon) of 1.24 µM and a GI50 (SNB-75 CNS) of 0.261 µM. For the same compound, the TGI (SNB-75 CNS) was 1.25 µM, the GI50 (UACC-257 melanoma) was 0.541 µM and the TGI (UACC-257 melanoma) was 2.13 µM. The GI50 (RPMI-8226 leukemia) was 0.0727 µM, the TGI (RPMI-8226 leukemia) was 0.594 µM and the GI50 (A549 NSCLC) was 0.0626 µM. It also gave a TGI (A549 NSCLC) of 0.31 µM, a GI50 (IGROV1 ovarian) of 0.15 µM and a TGI (IGROV1 ovarian) of 2.33 µM. For the same compound, the GI50 (UACC-62 melanoma) was 0.312 µM, the TGI (UACC-62 melanoma) was 1.85 µM and the GI50 (U251 CNS) was 0.0821 µM. It also gave a TGI (U251 CNS) of 1.17 µM, a GI50 (BT-549 breast) of 0.127 µM and a TGI (BT-549 breast) of 0.672 µM. It also gave a GI50 (SNB-19 CNS) of 0.117 µM, a TGI (SNB-19 CNS) of 1.06 µM and a GI50 (HCT-15 colon) of 0.154 µM. For the same compound, the TGI (HCT-15 colon) was 1.18 µM, the GI50 (SK-MEL-5 melanoma) was 0.0634 µM and the TGI (SK-MEL-5 melanoma) was 0.202 µM. The GI50 (SF-268 CNS) was 0.12 µM, the TGI (SF-268 CNS) was 1.43 µM and the GI50 (DU-145 prostate) was 0.0469 µM. The TGI (DU-145 prostate) was 0.331 µM, the GI50 (SF-295 CNS) was 0.0617 µM and the TGI (SF-295 CNS) was 0.425 µM. For the same compound, the GI50 (M14 melanoma) was 0.32 µM, the TGI (M14 melanoma) was 1.48 µM and the GI50 (K-562 leukemia) was 0.121 µM. For the same compound, the GI50 (NCI/ADR-RES ovarian) was 0.807 µM, the TGI (NCI/ADR-RES ovarian) was 3.38 µM and the GI50 (CCRF-CEM leukemia) was 0.0227 µM. For the same compound, the TGI (CCRF-CEM leukemia) was 1.05 µM, the GI50 (HOP-62 NSCLC) was 0.0575 µM and the TGI (HOP-62 NSCLC) was 0.462 µM. It also gave a GI50 (PC-3 prostate) of 0.272 µM, a TGI (PC-3 prostate) of 2.29 µM and a GI50 (COLO 205 colon) of 0.0746 µM. It also gave a TGI (COLO 205 colon) of 1.65 µM, a GI50 (SW-620 colon) of 0.053 µM and a TGI (SW-620 colon) of 1.46 µM. It also gave a GI50 (HCT-116 colon) of 0.0799 µM, a TGI (HCT-116 colon) of 0.534 µM and a GI50 (HL-60(TB) leukemia) of 0.169 µM. For the same compound, the TGI (HL-60(TB) leukemia) was 1.69 µM, the GI50 (NCI-H522 lung) was 0.0174 µM and the TGI (NCI-H522 lung) was 0.0955 µM. For the same compound, the GI50 (SR leukemia) was under 0.0207 µM, the TGI (SR leukemia) was 1.8 µM and the GI50 (ACHN renal) was 0.0397 µM. It also gave a TGI (ACHN renal) of 0.24 µM, a GI50 (HCC-2998 colon) of 0.109 µM and a TGI (HCC-2998 colon) of 0.479 µM. It also gave a GI50 (MOLT-4 leukemia) of under 0.0182 µM, a TGI (MOLT-4 leukemia) of 5.28 µM and a GI50 (OVCAR-8 ovarian) of 0.0908 µM. The TGI (OVCAR-8 ovarian) was 1.9 µM, the GI50 (SK-MEL-28 melanoma) was 0.897 µM and the TGI (SK-MEL-28 melanoma) was 2.49 µM. The GI50 (OVCAR-3 ovarian) was 0.331 µM, the TGI (OVCAR-3 ovarian) was 1.41 µM and the GI50 (MDA-MB-231 breast) was 0.543 µM. The TGI (MDA-MB-231 breast) was 2.33 µM, the GI50 (EKVX NSCLC) was 0.349 µM and the TGI (EKVX NSCLC) was 1.5 µM. For the same compound, the GI50 (UO-31 renal) was 0.0904 µM, the TGI (UO-31 renal) was 0.618 µM and the GI50 (MALME-3M melanoma) was 0.178 µM. It also gave a TGI (MALME-3M melanoma) of 1.24 µM, a GI50 (SK-OV-3 ovarian) of 0.218 µM and a TGI (SK-OV-3 ovarian) of 1.42 µM. It also gave a GI50 (CAKI-1 renal) of 0.107 µM, a TGI (CAKI-1 renal) of 0.659 µM and a GI50 (A498 renal) of 0.0807 µM. For the same compound, the TGI (A498 renal) was 0.52 µM, the GI50 (OVCAR-4 ovarian) was 0.301 µM and the TGI (OVCAR-4 ovarian) was 2.23 µM. The GI50 (NCI-H226 lung) was 0.486 µM, the TGI (NCI-H226 lung) was 2.31 µM and the GI50 (SN12C renal) was 0.118 µM. It also gave a TGI (SN12C renal) of 1.42 µM, a GI50 (TK-10 renal) of 0.316 µM and a TGI (TK-10 renal) of 3.03 µM.

From PubChem BioAssay (NCI)
